Read-outs that look alike come from different tables or passages of the source.
Key:
[1] = Bulk density (not tapped); format: physicochemical; conditions: room temperature
Description: As used herein, the “specific surface area” (SSA) is the total surface area of the taxane particle per unit of taxane mass as measured by the Brunauer-Emmett-Teller (“BET”) isotherm by the following method: a known mass between 200 and 300 mg of the analyte is added to a 30 mL sample tube. […] The automated test is then carried out using the BETWIN® software package and the surface area of each sample is subsequently calculated. As will be understood by those of skill in the art, the “taxane particles” can include both agglomerated taxane particles and non-agglomerated taxane particles; since the SSA is determined on a per gram basis it takes into account both the larger agglomerated and smaller non-agglomerated taxane particles in the composition. The agglomerated taxane particles are defined herein as individual taxane particles that are formed by the agglomeration of smaller particles which fuse together forming the larger individual taxane particles, all of which occurs during the processing of the taxane particles. The BET specific surface area test procedure is a compendial method included in both the United States Pharmaceopeia and the European Pharmaceopeia. […]
The mass of the drug was measured to a nearest 0.1 mg, the volume was determined to the nearest 0.1 mL and the density calculated.

[2] = Paclitaxel dissolution study, USP Apparatus II; format: physicochemical
Description: Beads were transferred to a stainless steel mesh container and placed in the dissolution bath containing methanol/water 50/50 (v/v) media at 37° C., pH 7, and a USP Apparatus II (Paddle), operating at 75 rpm. […] Absorbance values of the samples were compared to those of standard solutions prepared in dissolution media to determine the amount of material dissolved. […] Absorbance values of the samples were compared to those of standard solutions prepared in dissolution media to determine the amount of material dissolved.
Beads were transferred to a stainless steel mesh container and placed in the dissolution bath containing methanol/water 50/50 (v/v) media at 37° C., pH 7, and a USP Apparatus II (Paddle), operating at 75 rpm. […] Absorbance values of the samples were compared to those of standard solutions prepared in dissolution media to determine the amount of material dissolved.

[3] = BET specific surface area analysis; format: physicochemical
Description: As used herein, the “specific surface area” (SSA) is the total surface area of the taxane particle per unit of taxane mass as measured by the Brunauer-Emmett-Teller (“BET”) isotherm by the following method: a known mass between 200 and 300 mg of the analyte is added to a 30 mL sample tube. […] The automated test is then carried out using the BETWIN® software package and the surface area of each sample is subsequently calculated. As will be understood by those of skill in the art, the “taxane particles” can include both agglomerated taxane particles and non-agglomerated taxane particles; since the SSA is determined on a per gram basis it takes into account both the larger agglomerated and smaller non-agglomerated taxane particles in the composition. The agglomerated taxane particles are defined herein as individual taxane particles that are formed by the agglomeration of smaller particles which fuse together forming the larger individual taxane particles, all of which occurs during the processing of the taxane particles. […]
A known mass between 200 and 300 mg of the analyte was added to a 30 mL sample tube. […] The automated test was then carried out using the BETWIN® software package and the surface area of each sample was subsequently calculated.

[4] = Docetaxel dissolution study, USP Apparatus II; format: physicochemical
Description: The procedures used to determine the dissolution rates are as follows. […] Beads were transferred to a stainless steel mesh container and placed in the dissolution bath containing methanol/water 50/50 (v/v) media at 37° C., pH 7, and a USP Apparatus II (Paddle), operating at 75 rpm. At 10, 20, 30, 60, and 90 minutes, a 5 mL aliquot was removed, filtered through a 0.22 μm filter and analyzed on a UV/VIS spectrophotometer at 227 nm. Absorbance values of the samples were compared to those of standard solutions prepared in dissolution media to determine the amount of material dissolved. […] At 5, 15, 30, 60, 120 and 225 minutes, a 5 mL aliquot was removed, filtered through a 0.22 μm filter, and analyzed on a UV/VIS spectrophotometer at 232 nm. Absorbance values of the samples were compared to those of standard solutions prepared in dissolution media to determine the amount of material dissolved.
At 5, 15, 30, 60, 120 and 225 minutes, a 5 mL aliquot was removed, filtered through a 0.22 μm filter, and analyzed on a UV/VIS spectrophotometer at 232 nm. Absorbance values of the samples were compared to those of standard solutions prepared in dissolution media to determine the amount of material dissolved.

[5] = Particle size analysis (light obscuration and laser diffraction); format: physicochemical
Text: The particle size of the taxane particles can be determined by a particle size analyzer instrument and the measurement is expressed as the mean diameter based on a number distribution (number). A suitable particle size analyzer instrument is one which employs the analytical technique of light obscuration, also referred to as photozone or single particle optical sensing (SPOS). A suitable light obscuration particle size analyzer instrument is the ACCUSIZER, such as the ACCUSIZER 780 SIS, available from Particle Sizing Systems, Port Richey, Fla. Another suitable particle size analyzer instrument is one which employs laser diffraction, such as the Shimadzu SALD-7101.
Particle size was analyzed by both light obscuration and laser diffraction methods.
The vials were vortexed for approximately 10 seconds and then sonicated in a sonic bath approximately 1 minute.
The vial was vortexed for approximately 10 seconds and then sonicated in a sonic bath for approximately 2 minutes. This suspension was used for laser diffraction analysis. Unused suspension was poured into a 125 mL particle-free plastic bottle, which was then filled to approximately 100 mL with filtered dispersant. The suspension was vortex for approximately 10 seconds and then sonicated in the sonic bath for approximately 2 minutes. This diluted suspension was used for light obscuration analysis. […]

[6] = tested on: human renal cell adenocarcinoma (786-O cell line); assay: Drug efficacy in rat xenograft model, tumor volume; format: in vivo; conditions: IV, QW × 3, 2.5-5 mg/kg
[7] = tested on: human renal cell adenocarcinoma (786-O cell line); assay: H&E and immunohistochemical evaluation of xenograft tumors; format: in vivo, Rat (Rattus norvegicus); conditions: for morphologic and immunohistochemical appearance of tumor: IV, 3 weekly cycles, versus vehicle/control
Text: Tissue Collection: Primary Tumor (Inoculation site)—A final tumor measurement was taken prior to excision. Tumors were weighed after excision. Approximately ½ of each tumor (based on visual assessment) was flash frozen in 2-methylbutane on dry ice, the tumor piece was weighed when possible before it is flash frozen. The remaining was fixed in 10% neutral buffered formalin. Tumors were also collected from animals not reaching enrollment volume. Secondary Tumors—Any organ with visible tumors were collected and fixed in 10% neutral buffered formalin. Formalin fixed tissues were stored at room temperature. Frozen tissues were stored at −80° C. All tissue was stored for up to 3 months. Pictures of all tumors; primary and secondary if present, were taken.
Microscopic Examination: Tissues fixed with 10% NBF were embedded in paraffin. Each tumor was cut into 2-3 pieces and embedded and sectioned together.

[8] = Body weight and clinical observations in xenograft study; conditions: IV, group 6, initial dosage 5 mg/kg
Description: Individual Body Weights: Three times weekly (M, W, F) starting at the time of inoculation.
Macroscopic Examination: A necropsy was conducted on all animals dying spontaneously, euthanized in extremis or at the scheduled necropsy after 50 days post initiation of treatment. Animals euthanized in extremis or at study termination were euthanized by CO2 inhalation. Necropsy included examination of the external surface, all orifices and the thoracic, abdominal and pelvic cavities, including viscera. At the time of necropsy, a final body weight and body condition score was collected.

Structure (SMILES) | Bulk Density (not tapped) [1] [g/mL] | Paclitaxel Dissolution time course ([2]; 0 minutes) [%] | Dissolution (30 min) ([2]; methanol/water 50/50 (v/v), 37° C., pH 7, 75 rpm, 30 min) [%] | Surface area (BET, SSA) [3] [m^2/g] | Surface area (BET, SSA) ([3]; listed as raw paclitaxel) [m^2/g] | Docetaxel Dissolution time course ([4]; 0 minutes) [%] | Docetaxel Dissolution time course ([4]; 5 minutes) [%] | Docetaxel Dissolution time course ([4]; 15 minutes) [%] | Dissolution (30 min) ([4]; methanol/water 15/85 (v/v), 37° C., pH 7, 75 rpm, 30 min) [%] | Number Mean [5] [um] | Volume Mean [5] [um] | tumor growth [6] | animals with Mild lymphohistiocytic infiltrate density ([7]; H/E and CD11b, IV docetaxel 3 cycles, 2 animals) | animals with <5% of tissue showing necrosis ([7]; IV docetaxel 3 cycles, 2 animals) | animals with viable carcinoma >10 mm ([7]; IV docetaxel 3 cycles, 2 female rats) | morphologic and immunohistochemical appearance of tumor [7] | morphologic and immunohistochemical appearance of tumor ([7]; listed as Docetaxel) | toxicity [8]
CC(=O)O[C@H]1C(=O)[C@@]2(C)[C@H]([C@H](OC(=O)c3ccccc3)[C@]3(O)C[C@H](OC(=O)[C@H](O)[C@@H](NC(=O)c4ccccc4)c4ccccc4)C(C)=C1C3(C)C)[C@]1(OC(C)=O)CO[C@@H]1C[C@@H]2O [Paclitaxel Raw Material, paclitaxel] | 0.26 | 0.0 | 18 | 10.4 | 7.25 | – | – | – | – | – | – | – | – | – | – | – | – | –
CC(=O)O[C@@]12CO[C@@H]1C[C@H](O)[C@@]1(C)C(=O)[C@H](O)C3=C(C)[C@@H](OC(=O)[C@H](O)[C@@H](NC(=O)OC(C)(C)C)c4ccccc4)C[C@@](O)([C@@H](OC(=O)c4ccccc4)[C@H]21)C3(C)C [docetaxel] | – | – | – | – | – | 0.0 | 3.2 | 6.9 | 11 | 1.58 | 5.05 | partial tumor growth inhibition compared to vehicle control | 2 | 2 | 2 | identical morphologic and immunohistochemical appearance to that seen in the control and IT vehicle groups | no difference | observed toxicity on day 7

Reference: patent US20190365699A1, “Treatment of Kidney Tumors by Intratumoral Injection of Taxane Particles” (CRITITECH, INC., priority 2018, published 2019)
